In PubChem BioAssay (NCI):
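Where inhibition never reached the appropriate level, the endpoint shown equals the highest concentration tested. Otherwise, values were interpolated linearly from a five-concentration, 48-hour dose response in 96-well plates. TGI: concentration producing complete growth inhibition.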

Key:
Assay in all cases: growth of human tumour cells (NCI), 48 h
UACC-257 melanoma = system: UACC-257 melanoma
MALME-3M melanoma = system: MALME-3M melanoma
SNB-75 CNS = system: SNB-75 CNS
TK-10 renal = system: TK-10 renal
UACC-62 melanoma = system: UACC-62 melanoma
SR leukemia = system: SR leukemia
OVCAR-3 ovarian = system: OVCAR-3 ovarian
OVCAR-8 ovarian = system: OVCAR-8 ovarian
LOX IMVI melanoma = system: LOX IMVI melanoma
CAKI-1 renal = system: CAKI-1 renal
UO-31 renal = system: UO-31 renal
NCI-H23 lung = system: NCI-H23 lung
SN12C renal = system: SN12C renal
M14 melanoma = system: M14 melanoma
BT-549 breast = system: BT-549 breast
NCI-H226 lung = system: NCI-H226 lung
HS 578T breast = system: HS 578T breast
NCI/ADR-RES ovarian = system: NCI/ADR-RES ovarian

Row | SMILES | TGI (UACC-257 melanoma) [µM] | TGI (MALME-3M melanoma) [µM] | TGI (SNB-75 CNS) [µM] | TGI (TK-10 renal) [µM] | TGI (UACC-62 melanoma) [µM] | TGI (SR leukemia) [µM] | TGI (OVCAR-3 ovarian) [µM] | TGI (OVCAR-8 ovarian) [µM] | TGI (LOX IMVI melanoma) [µM] | TGI (CAKI-1 renal) [µM] | TGI (UO-31 renal) [µM] | TGI (NCI-H23 lung) [µM] | TGI (SN12C renal) [µM] | TGI (M14 melanoma) [µM] | TGI (BT-549 breast) [µM] | TGI (NCI-H226 lung) [µM] | TGI (HS 578T breast) [µM] | TGI (NCI/ADR-RES ovarian) [µM]
1 | O=c1[nH]c(-c2ccccc2)nc2c1sc1nc3ccccc3n12 | > 100 | > 100 | > 100 | > 100 | > 100 | > 100 | > 100 | > 100 | > 100 | > 100 | > 100 | > 100 | > 100 | > 100 | > 100 | > 100 | 82.5 | > 100
2 | CCOc1ccc(NCC2CC/C(=C\c3ccc(O)cc3)C2=O)cc1 (configuration not stated) | 30.7 | 28.5 | 27.8 | 26.2 | 37.7 | 5.13 | 25.5 | 34.4 | 16.8 | 34.3 | 33.6 | 50.4 | 35.6 | 36 | 25.6 | > 61.2 | 73.7 | 36.9
3 | COc1cccc2c1C(=O)c1ccc3cc(CCl)cc(O)c3c1C2=O | 0.698 | 0.515 | 1.67 | 0.823 | 0.687 | 1.13 | 0.696 | 0.612 | 0.595 | 1.7 | 1.14 | 1.27 | 0.334 | 0.743 | 1.39 | 1.78 | 2.32 | 1.39
4 | NC(=O)NC(=O)c1cccc(NC(=O)CF)c1 | > 100 | > 100 | > 100 | > 100 | > 100 | > 100 | > 100 | > 100 | > 100 | > 100 | 80.6 | > 100 | > 100 | > 100 | > 100 | > 100 | > 100 | > 100
5 | CCCCOCCOC1=CC(=O)c2c(O)ccc(O)c2C1=O | 2.23 | 0.738 | 2.91 | 4.8 | 2.98 | 5.11 | 3.04 |  | 3.15 | 3.23 | 3.01 | 3.17 | 3.03 | 2.18 | 2.98 | 3.14 | 4.99 | 4.74
6 | Cc1cc2nc(-c3c(F)cccc3F)n(Cc3c(F)cccc3F)c2cc1C | 30 | 44 | 26.1 | 56.6 |  | 30.4 | 31.8 | 29.5 | 27.4 | 37.7 | 23.3 | 39.9 | 33.5 | 25.2 | 27.9 | 35.1 | 46.7 | 44.9
7 | CCOc1cc2c(cc1OC(C)=O)C(=O)CC[C@H]1C3CC[C@H](OC(C)=O)[C@@]3(C)CC[C@H]21 (some centres not stated) | > 100 | > 100 | > 100 | > 100 | > 100 | > 100 | > 100 | > 100 | > 100 | > 100 | > 100 | > 100 |  | > 100 | > 100 | > 100 | > 100 | > 100
8 | NNCCc1n[nH]c(=O)n1N | > 100 | > 100 | > 100 |  | > 100 | > 100 | > 100 | > 100 | > 100 | > 100 | > 100 | > 100 | > 100 | > 100 | > 100 | > 100 | > 100 | > 100
9 | O=C(/C=C/c1ccccc1)CSc1nc2ccc(I)cc2c(=O)n1Cc1ccccc1 | > 100 | 51.3 | > 95.7 | > 84.6 | > 100 | 33.3 | > 90.6 | > 100 | > 100 | 3.74 | 0.553 | > 100 | 30.8 | > 100 | > 100 | > 84.4 | 67.7 | > 100
10 | CC(C)(C)OC(=O)N/N=C(/N)Cc1ccccc1 | > 100 | > 100 | > 100 | > 100 | > 100 | > 100 | > 100 | > 100 | > 100 | > 100 | > 100 | > 100 | > 100 | > 100 | > 100 | > 100 | > 100 | > 100
11 | CC(C)(C)[Si](C)(C)OCCOCn1cc(F)c(=O)[nH]c1=O | > 100 | > 100 | > 100 | > 100 | > 100 | > 100 | > 100 | > 100 | > 100 | > 100 | > 100 | > 100 | > 100 | > 100 | > 100 | > 100 | > 100 | > 100
12 | COc1cc(Oc2nc3c(N)cc(C(F)(F)F)cc3nc2-c2ccccc2)cc(OC)c1OC | 43.9 | 11.5 | 26 | > 100 | 15.9 | > 100 | 13.5 | > 46.3 | > 100 | > 45.2 | > 100 | > 63.6 | > 100 | > 100 | 34.5 | > 78.2 | > 53.8 | > 26.1
13 | COC(=O)[C@@]12C(=O)C(C)C(=O)[C@]1(C)C(C)=C[C@H]1[C@]3(C=O)CC[C@H](OC(C)=O)C(C)(C)[C@H]3CC[C@@]12C (some centres not stated) | > 100 | > 100 | > 100 | > 100 | > 100 | > 100 | > 100 | > 100 | > 100 | > 100 | > 100 | > 100 |  | > 100 | > 100 | > 100 | > 100 | > 100
14 | COc1ccc(C(=O)/C=C/c2cccnc2)cc1OC | 29 | 28.5 | 24.4 | 29.1 | 28.4 | 6.02 | 11 | 18.6 | 3.81 | 15.7 | 26.3 | 22.9 | 18.3 | 26.6 | 19.3 | 24.8 | 49.6 | 36.5
15 | CN(C)CCn1c(=O)c2ccc3c4c(nn3CCN(C)C)c3cc(O)ccc3n(c1=O)c24 | 1.16 | 0.982 | 1.42 | 0.837 | 0.585 | 0.0505 | 0.842 | 0.124 | 0.101 | 0.291 | 0.675 | 0.701 | 0.842 | 0.846 | 3.66 | 1.44 | 0.373 | 6.82
16 | O=C1/C(=C/c2ccccc2)CCC/C1=C\c1ccc(O)c(CN2CCCCC2)c1 | 18.5 | 40.2 | 17.1 | 31 | 10.5 | 6.38 | 22.9 | 9.54 | 4.08 | 18.8 | 19.7 | 15.1 | 9.53 | 26.1 | 10.5 | 16.9 | 15.1 | 8.44
17 | Cc1n[nH]c(=O)n1/N=C\CC/C=N\n1c(C)n[nH]c1=O | > 100 | > 100 | > 100 | > 100 | > 100 | > 100 | > 100 | > 100 | > 100 | > 100 | > 100 | > 100 | > 100 | > 100 | > 100 | > 100 | > 100 | > 100
18 | Nc1nc(N)c2[nH]cnc2n1 (tested in a mixture with another compound) | 55.2 | > 100 | > 100 | 80.7 | 24.9 | > 100 | 74.4 | > 100 | > 100 | > 100 | 58.4 | 77.5 | > 100 | 36.2 | > 100 | > 100 | > 100 | > 100
19 | CC(=O)O[C@H]1CCn2c3c(c(C)c21)C(=O)C(N1CC1)=C(C)C3=O | > 10 | > 10 | > 10 | > 10 | > 10 | > 10 | > 10 | > 10 | > 10 | > 10 |  | > 10 | > 10 | > 10 | > 10 | > 10 | > 10 | > 10
20 | O=C1NC(=O)C(COCc2ccccc2)C2=C1SCCC2 (configuration not stated) | > 100 | > 100 | > 100 |  |  | > 100 | > 100 | > 100 | > 100 | > 100 | > 100 | > 100 |  | > 100 | > 100 | > 100 | > 100 | > 100
21 | CC(C)C/C=C/C1=NN(c2cccc(S(=O)(=O)O)c2)C2(C1)SCC(=O)N2c1nc2ccccc2s1 (configuration not stated) | > 100 | > 100 | > 100 | > 100 | > 100 | 74.5 |  | > 100 | 70 | > 100 | > 100 | > 100 | > 100 | > 100 | > 100 | > 100 | > 100 | > 100
22 | C=C1C(=O)O[C@H]2[C@H]3O[C@@H](C[C@@H]12)[C@@]1(C)CC[C@H](O1)C(C)=CCC[C@H]3C | 3.59 | 3.15 | 5.65 | 2.93 | 4.05 | 0.28 | 2.7 | 3.1 | 2.89 | 2.56 | 2.77 | 2.96 | 4.05 | 3.15 | 2.07 | 7.02 | 8.95 | 3.33
23 | COC(C)(C)CCc1[nH]c2ccccc2c1CC(=O)NCCc1cncn1C | > 100 | > 100 | > 100 | > 100 | > 100 | > 100 | > 100 | > 100 | > 100 | > 100 | > 100 | > 100 | > 100 | > 100 | > 100 | > 100 | > 100 | > 100
24 | COc1cccc(C2SCC(=O)N2c2ccc(-n3c(-c4ccccc4)nc4ccccc4c3=O)cc2)c1OC (configuration not stated) | > 100 | > 100 | > 100 | > 100 | > 100 | > 100 | > 100 | > 100 | > 100 | > 100 | > 100 | > 100 | > 100 | > 100 | > 100 | > 100 | > 100 | > 100
